Values belong to the molecule of their own block, whether it stands above or below them. Starred links: 1 amine or outer side, 2 acyl side, 3 side chain; linkers in the order of their positions; H or OH if unused. Non-standard residues stand in square brackets, D forms with d. Residues, ends and D or L forms follow the SMILES beside them. Groups on a side chain read outwards from the residue. No end group written: not given here. *: point of attachment. γGlu = O=C(O)[C@H](CCC(=O)[*:2])N[*:1]; Palmitoyl = CCCCCCCCCCCCCCCC(=O)*; NMeF = CN[C@@H](Cc1ccccc1)C(=O)O
Assays:
[1] = biological target: T1, NPFF-R2 (Homo sapiens, UniProt Q9Y5X5); assay: Cell signaling by immunoblotting, CHO-K1 cells expressing NPFF-R2; format: cell-based; conditions: dose-response 10^−11 to 10^−5 M, 5 min, 37 °C, immunoblot, at least two experiments
T1 construct: host or cells: CHO-K1 (AequoScreen, co-expressing aequorin)
Protocol: Cells were seeded in 24-well plates at 30,000 cells/well in assay medium (growth medium without selective antibiotics) and were grown for 2 days. The day before the experiment, the medium was changed to serum-free medium. […] Cells were lysed with Laemmli sample buffer (62.5 mM Tris-HCl at pH 6.8, 2% SDS, 10% glycerol, 0.01% bromophenol blue, 5% β-mercaptoethanol, 50 mM NaF, and 1 mM Na3VO4). Samples were stored at −20 °C. Electrophoresis and immunoblotting were performed as described previously. For detection of signaling pathways, primary monoclonal antibodies (see Table 5 for the antibodies used) purchased from Cell Signaling Technology (Danvers, MA, USA) were used.
(§1) Experiments using immunoblotting were analyzed using one-way ANOVA followed by Dunnett’s post hoc test; p < 0.05 was considered statistically significant. Dose-response curves were obtained from nonlinear regression.

[2] = biological target: T2, GPR10 (human, UniProt P49683 1-370)
T2 sequence (looked up): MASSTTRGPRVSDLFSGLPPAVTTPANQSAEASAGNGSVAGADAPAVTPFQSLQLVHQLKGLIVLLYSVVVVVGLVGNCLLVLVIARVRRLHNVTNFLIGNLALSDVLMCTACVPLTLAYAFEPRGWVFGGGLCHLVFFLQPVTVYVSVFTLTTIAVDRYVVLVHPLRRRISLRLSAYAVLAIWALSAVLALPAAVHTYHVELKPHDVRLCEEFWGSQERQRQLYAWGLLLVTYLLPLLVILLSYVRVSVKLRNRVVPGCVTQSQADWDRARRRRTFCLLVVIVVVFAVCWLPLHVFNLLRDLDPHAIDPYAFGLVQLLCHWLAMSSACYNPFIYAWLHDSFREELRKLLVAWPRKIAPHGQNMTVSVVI

[3] = biological target: T3, GPR10 (Homo sapiens, UniProt P49683); assay: Cell signaling by immunoblotting, CHO-K1 cells expressing GPR10; format: cell-based; conditions: dose-response 10^−11 to 10^−5 M, 5 min, 37 °C, immunoblot, at least two experiments
T3 construct: host or cells: CHO-K1
T3 sequence (P49683 1-370): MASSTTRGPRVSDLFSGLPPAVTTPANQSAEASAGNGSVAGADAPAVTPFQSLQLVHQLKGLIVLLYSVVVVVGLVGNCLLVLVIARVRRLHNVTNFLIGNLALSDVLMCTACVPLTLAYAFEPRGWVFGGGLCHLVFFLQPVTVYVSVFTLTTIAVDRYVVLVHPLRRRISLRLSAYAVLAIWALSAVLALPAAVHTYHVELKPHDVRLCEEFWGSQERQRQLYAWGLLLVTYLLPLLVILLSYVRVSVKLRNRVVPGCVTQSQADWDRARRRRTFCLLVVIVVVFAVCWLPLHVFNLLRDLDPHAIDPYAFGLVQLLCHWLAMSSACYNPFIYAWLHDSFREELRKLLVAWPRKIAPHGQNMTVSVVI
Protocol: Activation of signaling pathways was studied in the CHO-K1 cell lines containing GPR10, NPFF-R2 and NPFF-R1. Cells were seeded in 24-well plates at 30,000 cells/well in assay medium (growth medium without selective antibiotics) and were grown for 2 days. The day before the experiment, the medium was changed to serum-free medium. […] Cells were lysed with Laemmli sample buffer (62.5 mM Tris-HCl at pH 6.8, 2% SDS, 10% glycerol, 0.01% bromophenol blue, 5% β-mercaptoethanol, 50 mM NaF, and 1 mM Na3VO4). Samples were stored at −20 °C. Electrophoresis and immunoblotting were performed as described previously. For detection of signaling pathways, primary monoclonal antibodies (see Table 5 for the antibodies used) purchased from Cell Signaling Technology (Danvers, MA, USA) were used.
as §1

[4] = biological target: T4, DOR (Homo sapiens, UniProt P41143); assay: Beta-lactamase reporter gene assay (FRET), DOR; format: cell-based; conditions: β-lactamase assay, agonist mode, U2OS cells; mean ± SEM, 2–3 independent experiments in duplicates
T4 construct: host or cells: U2OS

[5] = biological target: T5, ORL-1 (Homo sapiens, UniProt P41146); assay: Beta-lactamase reporter gene assay (FRET), ORL-1; format: cell-based; conditions: β-lactamase assay, agonist mode, U2OS cells; mean ± SEM, 2–3 independent experiments in duplicates
T5 construct: host or cells: U2OS

[6] = biological target: T6, Y1 (Homo sapiens, UniProt P25929); assay: Competitive and saturation binding, [^125I]-PYY, U2OS cells with Y1
T6 construct: host or cells: U2OS
T6 sequence (P25929 1-384): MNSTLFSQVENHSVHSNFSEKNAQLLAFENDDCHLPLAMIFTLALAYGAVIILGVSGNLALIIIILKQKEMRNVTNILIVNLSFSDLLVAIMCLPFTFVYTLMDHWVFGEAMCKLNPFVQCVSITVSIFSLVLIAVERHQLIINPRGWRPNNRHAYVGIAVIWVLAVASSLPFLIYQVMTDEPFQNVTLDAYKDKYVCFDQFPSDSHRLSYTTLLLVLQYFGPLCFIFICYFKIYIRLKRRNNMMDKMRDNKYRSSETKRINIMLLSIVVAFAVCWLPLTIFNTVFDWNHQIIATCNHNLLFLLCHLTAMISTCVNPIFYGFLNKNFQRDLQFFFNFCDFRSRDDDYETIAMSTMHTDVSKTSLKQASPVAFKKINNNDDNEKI
Protocol: (§2) Competition binding experiments were performed according to [45]. […] Binding experiments using U2OS cells were optimized and performed in assay buffer (50 mM Tris-Cl pH 7.4, 118 mM NaCl, 5 mM MgCl2, 4.7 mM KCl, 0.1% BSA) for cells stably expressing GHSR and (25 mM HEPES, 120 mM NaCl, 5 mM MgCl2, 4.7 mM KCl, 1 mM CaCl2, 0.5% BSA, 2 g/L glucose) for cells containing receptors Y1, Y2 and Y5. […] Cells were incubated for 60 min at room temperature (RT).
(§3) Experiments were carried out in duplicate at least three times, and Ki was calculated using the Cheng-Prusoff equation.
(§4) Data were analyzed by GraphPad Software (San Diego, CA, USA) and are presented as the means ± SEM. The saturation and competitive binding experiments were analyzed according to [46] using the Cheng-Prusoff equation [33]. The competitive binding curves were plotted compared to the best fit for single-binding site models, and half maximal inhibitory concentration (IC50) values were obtained from nonlinear regression analysis. From saturation binding experiments, the dissociation constant (Kd) and number of binding sites/cell (Bmax) were calculated. Inhibition constants (Ki) were calculated from IC50 values, Kd and the concentration of radioligands.

[7] = biological target: T1, NPFF-R2; assay: Intracellular Ca^2+ mobilization, AequoScreen CHO-K1 cells with NPFF-R2; format: cell-based; conditions: CHO-K1 NPFF-R2 aequorin cells; peptides 10^−12 to 10^−5 M; mean ± SEM, three times in duplicates; read-out: EC50 intracellular Ca^2+ release, NPFF-R2
Protocol: The intracellular Ca^2+ level was measured using the AequoScreen stable CHO-K1 cell line containing NPFF-R2 purchased from Perkin Elmer according to the manufacturer’s protocol. Cells at 80–90% confluence cultured in media without selective antibiotics were detached (PBS pH 7.4 + 0.5 mM EDTA) and centrifuged. Cells resuspended in phenol red-free DMEM with 0.1% protease-free BSA and 5 µM coelenterazine h (Thermo Fisher Scientific Inc. Brand) were seeded at 50,000 cells/well in 96-well plates and incubated in the dark at RT with gentle agitation for 4 h. Peptides were tested at concentrations from 10^−12 to 10^−5 M. Luminescent light emission was recorded using a FlexStation 3 plate reader.
Ca^2+ release assay data are shown as the percentage of maximal response, and the results were analyzed by nonlinear regression as log agonist versus response using GraphPad software. Data are representative of at least three experiments, each performed in duplicate.

[8] = biological target: T7, KOR (Homo sapiens, UniProt P41145); assay: cell-based
T7 construct: host or cells: CHO-K1

[9] = biological target: T8, Y2 (Homo sapiens, UniProt P49146); assay: Competitive and saturation binding, [^125I]-PYY, U2OS cells with Y2
T8 construct: host or cells: U2OS
T8 sequence (P49146 1-381): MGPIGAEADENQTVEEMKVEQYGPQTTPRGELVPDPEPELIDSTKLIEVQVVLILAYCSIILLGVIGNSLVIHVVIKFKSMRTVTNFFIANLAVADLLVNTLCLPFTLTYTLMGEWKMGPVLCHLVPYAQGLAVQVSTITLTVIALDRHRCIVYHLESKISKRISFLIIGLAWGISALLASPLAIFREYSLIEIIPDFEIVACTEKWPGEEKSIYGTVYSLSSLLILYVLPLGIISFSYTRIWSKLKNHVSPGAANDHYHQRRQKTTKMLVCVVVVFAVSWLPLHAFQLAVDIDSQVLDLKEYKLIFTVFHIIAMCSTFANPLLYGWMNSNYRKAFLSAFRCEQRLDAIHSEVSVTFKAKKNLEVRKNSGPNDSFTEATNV
Protocol: as §2, §3, §4

[10] = biological target: T9, MOR (Homo sapiens, UniProt P35372); assay: Beta-lactamase reporter gene assay (FRET), MOR; format: cell-based
T9 construct: host or cells: U2OS

[11] = biological target: T3, GPR10; assay: Competitive binding, [^125I]-PrRP31, CHO-K1 cells expressing GPR10; conditions: competition with [^125I]-PrRP31, CHO-K1 cells expressing human GPR10; mean ± SEM, 2–5 independent experiments in duplicates; Cheng-Prusoff; read-out: Ki GPR10 [^125I]-PrRP31
[12] = biological target: kappa-opioid receptor (UniProt P41145 1-380); assay: radioligand binding; competition with [^125I]-dynorphin A on plasma membranes of CHO-K1 cells with KOR, 5 µg protein/tube; 50 mM Tris-HCl pH 7.4, 60 mM NaCl, 1 mM MgCl2, 0.5% BSA; 60 min at RT; filtration; Ki by the Cheng-Prusoff equation
[13] = biological target: T10, NPFF-R2 (UniProt Q9Y5X5 1-522); assay: radioligand binding; competition with [^125I]-1DMe on plasma membranes of CHO-K1 cells with NPFF-R2 or NPFF-R1, 5 µg protein/tube; 50 mM Tris-HCl pH 7.4, 60 mM NaCl, 1 mM MgCl2, 0.5% BSA; 60 min at RT; filtration; Ki by the Cheng-Prusoff equation; conditions: one partner purified
T10 construct: also called NPFF-2R; source: CHO-K1 cell line (AequoScreen), bought: Perkin Elmer

[14] = biological target: T11, NPFF-R1 (UniProt Q9GZQ6 1-430); assay: as above; conditions: one partner purified
T11 construct: also called NPFF-1R; source: CHO-K1 cell line, bought: Perkin Elmer

Molecule: CC(C)C[C@H](NC(=O)[C@H](N)Cc1ccc(O)cc1)C(=O)N(C)[C@@H](Cc1ccccc1)C(=O)N[C@@H](CCC(N)=O)C(=O)N1CCC[C@H]1C(=O)N[C@@H](CCC(N)=O)C(=O)N[C@@H](CCCNC(=N)N)C(=O)N[C@@H](Cc1ccccc1)C(N)=O [1DMe] (H-[dY]L[NMeF]QPQRF-NH2)
EC50 of ERK activation [1]: in nanomolar concentrations

Molecule: human prolactin-releasing peptide 31
EC50, agonist mode, β-lactamase reporter assay [2]: 0.53 nM

Molecule: SRAHQHSMETRTPDINPAWYTGRGIRPVGRF-NH2 [PrRP31, prolactin-releasing peptide 31, reference compound]
EC50 of ERK activation [3]: in the nanomolar range
EC50 of ERK activation [1]: in nanomolar concentrations

Molecule: CCCCCCCCCCCCCCCC(=O)N[C@@H](CCC(=O)NCCCC[C@H](NC(=O)[C@@H](NC(=O)[C@H](CCC(=O)O)NC(=O)[C@H](CCSC)NC(=O)[C@H](CO)NC(=O)[C@H](Cc1c[nH]cn1)NC(=O)[C@H](CCCNC(=N)N)NC(=O)[C@H](Cc1c[nH]cn1)NC(=O)[C@@H](NC(=O)[C@H](CCCNC(=N)N)NC(=O)[C@@H](N)CO)[C@@H](C)O)[C@@H](C)CC)C(=O)N[C@H](C(=O)N1CCC[C@H]1C(=O)N[C@@H](CC(=O)O)C(=O)N[C@H](C(=O)N[C@@H](CC(N)=O)C(=O)N1CCC[C@H]1C(=O)N[C@@H](C)C(=O)N[C@@H](Cc1c[nH]c2ccccc12)C(=O)N[C@@H](Cc1ccc(O)cc1)C(=O)N[C@@H](C)C(=O)N[C@@H](CO)C(=O)N[C@@H](CCCNC(=N)N)C(=O)NCC(=O)N[C@H](C(=O)N[C@@H](CCCNC(=N)N)C(=O)N1CCC[C@H]1C(=O)N[C@H](C(=O)NCC(=O)N[C@@H](CCCNC(=N)N)C(=O)N[C@@H](Cc1ccccc1)C(N)=O)C(C)C)[C@@H](C)CC)[C@@H](C)CC)[C@@H](C)O)C(=O)O [Palm^11-PrRP31] (H-SRTHRHSMEIK([γGlu-Palmitoyl])TPDINPAWYASRGIRPVGRF-NH2)
EC50 of ERK activation [3]: in the nanomolar range
EC50 [4]: > 10000 nM
EC50 [5]: > 10000 nM
Ki [6]: > 10000 nM
EC50 [7]: 18.7 ± 1.31 nM
EC50 [8]: > 10000 nM
Ki [9]: > 10000 nM
EC50 [10]: > 10000 nM

Molecule: [D-Pro10]-dynorphin A (peptide)
Ki [12]: 0.36 nM

Continued, values first:

Ki [11]: > 10000 nM
EC50 [7]: 0.82 ± 0.15 nM
Molecule: CC(C)C[C@H](NC(=O)[C@H](N)Cc1ccc(O)cc1)C(=O)N(C)[C@@H](Cc1ccccc1)C(=O)N[C@@H](CCC(N)=O)C(=O)N1CCC[C@H]1C(=O)N[C@@H](CCC(N)=O)C(=O)N[C@@H](CCCN=C(N)N)C(=O)N[C@@H](Cc1ccccc1)C(N)=O [1DMe] (H-[dY]L[NMeF]QPQRF-NH2)

Ki [13]: 1.03 nM
Ki [14]: 0.79 nM
B1: 1DMe (peptide)
peptide: [dY]L[NMeF]QPQRF-NH2
modifications: N-terminus assumed
SMILES: CC(C)C[C@H](NC(=O)[C@H](N)Cc1ccc(O)cc1)C(=O)N(C)[C@@H](Cc1ccccc1)C(=O)N[C@@H](CCC(N)=O)C(=O)N1CCC[C@H]1C(=O)N[C@@H](CCC(N)=O)C(=O)N[C@@H](CCCNC(=N)N)C(=O)N[C@@H](Cc1ccccc1)C(N)=O
notes: numbers count on: the peptide NPFF; source: synthetic peptide, purified (HPLC, purity greater than 95%)

— publication PMC8396344, “Palmitoylation of Prolactin-Releasing Peptide Increased Affinity for and Activation of the GPR10, NPFF-R2 and NPFF-R1 Receptors: In Vitro Study” (International Journal of Molecular Sciences, 2021)
